Reference: patent US5234907A, “Synthetic vasoactive intestinal peptide analogs” (Hoffmann-La Roche Inc., priority 1991, dated 1993)
pEC50: −log10 of the molar value. *1 amine or outer side, *2 acyl side, *3 side chain or, on linkers, in order; H or OH if unused. [ ]: non-standard residue; d: D form. Cys(Acm) = CC(=O)NCSC[C@H](N[*:1])C(=O)[*:2]; Phe(4-F) = N[C@@H](Cc1ccc(F)cc1)C(=O)O; NMeA = CN[C@@H](C)C(=O)O; Nle = CCCC[C@H](N)C(=O)O

Assays:
guinea pigs = experiment: In vivo bronchodilator activity by tracheal instillation against histamine-induced bronchoconstriction; parameters: species or system guinea pig; conditions: 100 μl, anesthetized male Hartley guinea pigs, histamine challenge 50 μg/kg i.v., inhibition of tracheal pressure increase
Description: The in vivo bronchodilator activity of VIP analogs in guinea pigs was assessed by the tracheal instillation route of administration. This technique utilized male guinea pigs (Hartley strain, Charles River) weighing 400-600 g. Animals were anesthetized with urethane (2 g/kg) intraperitoneally and a polyethylene cannula was inserted into the jugular vein for intravenous drug administration.
The animals were tracheotomized and dosing solutions of distilled water or test compound dissolved in distilled water were administered into the trachea, approximately three-quarter the distance to the carina with a pipette. The concentration of the dosing solution was adjusted to deliver a constant volume of 100 μl. The animals were placed supine for one minute to aid drug delivery to the lung. One minute later, spontaneous breathing was arrested with succinylcholine chloride (1.2 mg/kg) administered intravenously, and the animals were ventilized with a Harvard Model 680 small animal respirator set at 40 breaths/min and 4.0 cm^3 stoke volume. The animals were challenged with a maximal constrictory dose of histamine (50 μg/kg, i.v.) and tracheal pressure (cm of water) was recorded from a Statham pressure transducer (P 32 AA).
The change in tracheal pressure was averaged for at least 3 control and 3 drug-treated animals and percent inhibition was calculated. The relative potency of compounds administered by the instillation route was determined by administering various doses of test compound and calculating the median inhibitory dose (ID50 value). The ID50 was determined from log dose-reasons curves generated by at least 3 doses that caused inhibitory effects between 10% and 90%. The correlation coefficient for the regression line of each antagonist was always greater than 0.95.
For determination of the time course of inhibition for various compounds, the time between administration of compound and challenge with histamine was varied. The time course of activity was calculated as the time when inhibition decreased to 40%.

[1] = system: guinea pig tracheal smooth muscle; experiment: Tracheal relaxant activity of VIP analogs on isolated guinea pig tracheal rings; type: cell-based; conditions: cumulative concentration response; responses as % of maximum response to VIP (10^-6 M=100%); at least three tissues pooled; linear regression
Description: The relaxant activity of the VIP analogs was studied in a model utilizing guinea pig trachea. [Wasserman, M. A. et al., in Vasoactive Intestinal Peptide, S. I. Said, ed., Raven Press, N.Y. 1982, pp 177-184]; All tissues were taken from male albino guinea pig weighing 400-600 g, anesthesized with urethane (2 g/kg, i.p.). After exanguination, the trachea were removed and divided into four ring segments (3 mm length). Each ring was suspended by 30 gauge stainless steel wires in a 10 mL jacketed tissue bath and attached via 4-0 silk thread to a Grass force displacement transducer (model FT03C, Grass Instruments Co., Quincy, Ma), for isometric recording of tension. The smooth muscle was bathed in modified Krebs solution of the following composition: NaCl, 120 mM; KCl, 4.7 mM; CaCl2, 2.5 mM; MgSO.4 7H2 O, 1.2 mM; NaHCO3, 25 mM; K2 HPO4 monobasic, 1.2 mM; and dextrose, 10 mM. Tissue baths were maintained at 37° C. and constantly bubbled with 95% O2 and 5% CO2. Responses were recorded on an 8 channel and a 4 channel Hewlett-Packard (model 7702B and 7754A, respectively) recorder (Hewlett-Packard, Paramus, N.J.). […] Frequent readjustments of tension were required during the 60 minute stabilization period which followed. Tissues were rinsed at 15 minute intervals.
Cumulative concentration response curves were obtained for each tissue by successive […] increases in the bath concentration of VIP or VIP analogs according to the method of VanRossum [Arch. Int. Pharmacodyn., 143, 299-330 (1963)]. Only one cumulative dose response curve was obtained on a single tissue. To minimize variability between tissues, relaxant responses were expressed as a percentage of the maximum response obtained to VIP (10^-6 M=100%) added at the end of each concentration response experiment. Responses obtained from at least three tissues were pooled and EC50 values were determined by linear regression.

Substance | Bronchodilator activity in guinea pigs, ED50 (guinea pigs) | pEC50 [1]
Ac--[Lys^12, Nle^17, Ala^19, Ala^25, Leu^26, Lys^27,28, Ala^29-31 ]--VIP (Ac-HSDAVFTDNYTKLRKQ[Nle]AAKKYLNALKKAAA-NH2; SMILES CCCC[C@H](NC(=O)[C@H](CCC(N)=O)NC(=O)[C@H](CCCCN)NC(=O)[C@H](CCCNC(=N)N)NC(=O)[C@H](CC(C)C)NC(=O)[C@H](CCCCN)NC(=O)[C@@H](NC(=O)[C@H](Cc1ccc(O)cc1)NC(=O)[C@H](CC(N)=O)NC(=O)[C@H](CC(=O)O)NC(=O)[C@@H](NC(=O)[C@H](Cc1ccccc1)NC(=O)[C@@H](NC(=O)[C@H](C)NC(=O)[C@H](CC(=O)O)NC(=O)[C@H](CO)NC(=O)[C@H](Cc1c[nH]cn1)NC(C)=O)C(C)C)[C@@H](C)O)[C@@H](C)O)C(=O)N[C@@H](C)C(=O)N[C@@H](C)C(=O)N[C@@H](CCCCN)C(=O)N[C@@H](CCCCN)C(=O)N[C@@H](Cc1ccc(O)cc1)C(=O)N[C@@H](CC(C)C)C(=O)N[C@@H](CC(N)=O)C(=O)N[C@@H](C)C(=O)N[C@@H](CC(C)C)C(=O)N[C@@H](CCCCN)C(=O)N[C@@H](CCCCN)C(=O)N[C@@H](C)C(=O)N[C@@H](C)C(=O)N[C@@H](C)C(N)=O) [Ac--(SEQ ID NO: 22)--NH2] | 0.046 µg | 9.62
Ac--[Lys^12, Nle^17, Ala^19, Val^26, Thr^28, Ala^29-31 ]--VIP (Ac-HSDAVFTDNYTKLRKQ[Nle]AAKKYLNSVLTAAA-NH2; SMILES CCCC[C@H](NC(=O)[C@H](CCC(N)=O)NC(=O)[C@H](CCCCN)NC(=O)[C@H](CCCNC(=N)N)NC(=O)[C@H](CC(C)C)NC(=O)[C@H](CCCCN)NC(=O)[C@@H](NC(=O)[C@H](Cc1ccc(O)cc1)NC(=O)[C@H](CC(N)=O)NC(=O)[C@H](CC(=O)O)NC(=O)[C@@H](NC(=O)[C@H](Cc1ccccc1)NC(=O)[C@@H](NC(=O)[C@H](C)NC(=O)[C@H](CC(=O)O)NC(=O)[C@H](CO)NC(=O)[C@H](Cc1c[nH]cn1)NC(C)=O)C(C)C)[C@@H](C)O)[C@@H](C)O)C(=O)N[C@@H](C)C(=O)N[C@@H](C)C(=O)N[C@@H](CCCCN)C(=O)N[C@@H](CCCCN)C(=O)N[C@@H](Cc1ccc(O)cc1)C(=O)N[C@@H](CC(C)C)C(=O)N[C@@H](CC(N)=O)C(=O)N[C@@H](CO)C(=O)N[C@H](C(=O)N[C@@H](CC(C)C)C(=O)N[C@H](C(=O)N[C@@H](C)C(=O)N[C@@H](C)C(=O)N[C@@H](C)C(N)=O)[C@@H](C)O)C(C)C) [Ac--(SEQ ID NO: 10)--NH2] | 0.82 µg | 9.52
Ac--[Lys^12, Nle^17, Ala^19, Val^26, Thr^28, Gly^29, Lys^30 ]--VIP (Ac-HSDAVFTDNYTKLRKQ[Nle]AAKKYLNSVLTGK-NH2; SMILES CCCC[C@H](NC(=O)[C@H](CCC(N)=O)NC(=O)[C@H](CCCCN)NC(=O)[C@H](CCCNC(=N)N)NC(=O)[C@H](CC(C)C)NC(=O)[C@H](CCCCN)NC(=O)[C@@H](NC(=O)[C@H](Cc1ccc(O)cc1)NC(=O)[C@H](CC(N)=O)NC(=O)[C@H](CC(=O)O)NC(=O)[C@@H](NC(=O)[C@H](Cc1ccccc1)NC(=O)[C@@H](NC(=O)[C@H](C)NC(=O)[C@H](CC(=O)O)NC(=O)[C@H](CO)NC(=O)[C@H](Cc1c[nH]cn1)NC(C)=O)C(C)C)[C@@H](C)O)[C@@H](C)O)C(=O)N[C@@H](C)C(=O)N[C@@H](C)C(=O)N[C@@H](CCCCN)C(=O)N[C@@H](CCCCN)C(=O)N[C@@H](Cc1ccc(O)cc1)C(=O)N[C@@H](CC(C)C)C(=O)N[C@@H](CC(N)=O)C(=O)N[C@@H](CO)C(=O)N[C@H](C(=O)N[C@@H](CC(C)C)C(=O)N[C@H](C(=O)NCC(=O)N[C@@H](CCCCN)C(N)=O)[C@@H](C)O)C(C)C) [Ac--(SEQ ID NO: 11)--NH2] | 0.58 µg | 9.24
Ac--[N--Me--Ala^1, Lys^12, Nle^17, Ala^19, ^26, Thr^28 ]--VIP (Ac-[NMeA]SDAVFTDNYTKLRKQ[Nle]AAKKYLNSVLT-NH2; SMILES CCCC[C@H](NC(=O)[C@H](CCC(N)=O)NC(=O)[C@H](CCCCN)NC(=O)[C@H](CCCNC(=N)N)NC(=O)[C@H](CC(C)C)NC(=O)[C@H](CCCCN)NC(=O)[C@@H](NC(=O)[C@H](Cc1ccc(O)cc1)NC(=O)[C@H](CC(N)=O)NC(=O)[C@H](CC(=O)O)NC(=O)[C@@H](NC(=O)[C@H](Cc1ccccc1)NC(=O)[C@@H](NC(=O)[C@H](C)NC(=O)[C@H](CC(=O)O)NC(=O)[C@H](CO)NC(=O)[C@H](C)N(C)C(C)=O)C(C)C)[C@@H](C)O)[C@@H](C)O)C(=O)N[C@@H](C)C(=O)N[C@@H](C)C(=O)N[C@@H](CCCCN)C(=O)N[C@@H](CCCCN)C(=O)N[C@@H](Cc1ccc(O)cc1)C(=O)N[C@@H](CC(C)C)C(=O)N[C@@H](CC(N)=O)C(=O)N[C@@H](CO)C(=O)N[C@H](C(=O)N[C@@H](CC(C)C)C(=O)N[C@H](C(N)=O)[C@@H](C)O)C(C)C) [Ac--(SEQ ID NO: 91)--NH2, residue before ^26 lost in print, probably Val^26] | 1.5 µg | 8.55
Ac--[N--Me--Ala^1, Lys^12, Nle^17, Val^26, Thr^28 ]--VIP (Ac-[NMeA]SDAVFTDNYTKLRKQ[Nle]AVKKYLNSVLT-NH2; SMILES CCCC[C@H](NC(=O)[C@H](CCC(N)=O)NC(=O)[C@H](CCCCN)NC(=O)[C@H](CCCNC(=N)N)NC(=O)[C@H](CC(C)C)NC(=O)[C@H](CCCCN)NC(=O)[C@@H](NC(=O)[C@H](Cc1ccc(O)cc1)NC(=O)[C@H](CC(N)=O)NC(=O)[C@H](CC(=O)O)NC(=O)[C@@H](NC(=O)[C@H](Cc1ccccc1)NC(=O)[C@@H](NC(=O)[C@H](C)NC(=O)[C@H](CC(=O)O)NC(=O)[C@H](CO)NC(=O)[C@H](C)N(C)C(C)=O)C(C)C)[C@@H](C)O)[C@@H](C)O)C(=O)N[C@@H](C)C(=O)N[C@H](C(=O)N[C@@H](CCCCN)C(=O)N[C@@H](CCCCN)C(=O)N[C@@H](Cc1ccc(O)cc1)C(=O)N[C@@H](CC(C)C)C(=O)N[C@@H](CC(N)=O)C(=O)N[C@@H](CO)C(=O)N[C@H](C(=O)N[C@@H](CC(C)C)C(=O)N[C@H](C(N)=O)[C@@H](C)O)C(C)C)C(C)C) [Ac--(SEQ ID NO: 88)--NH2] | 8.5 µg | 8.14
Ac--[p-F--Phe^6, Glu^8, Lys^12, Nle^17, Ala^19, Val^26, Thr^28, Gly^29,30, Cys(Acm)^31 ]--VIP (Ac-HSDAV[Phe(4-F)]TENYTKLRKQ[Nle]AAKKYLNSVLTGG[Cys(Acm)]-NH2; SMILES CCCC[C@H](NC(=O)[C@H](CCC(N)=O)NC(=O)[C@H](CCCCN)NC(=O)[C@H](CCCNC(=N)N)NC(=O)[C@H](CC(C)C)NC(=O)[C@H](CCCCN)NC(=O)[C@@H](NC(=O)[C@H](Cc1ccc(O)cc1)NC(=O)[C@H](CC(N)=O)NC(=O)[C@H](CCC(=O)O)NC(=O)[C@@H](NC(=O)[C@H](Cc1ccc(F)cc1)NC(=O)[C@@H](NC(=O)[C@H](C)NC(=O)[C@H](CC(=O)O)NC(=O)[C@H](CO)NC(=O)[C@H](Cc1c[nH]cn1)NC(C)=O)C(C)C)[C@@H](C)O)[C@@H](C)O)C(=O)N[C@@H](C)C(=O)N[C@@H](C)C(=O)N[C@@H](CCCCN)C(=O)N[C@@H](CCCCN)C(=O)N[C@@H](Cc1ccc(O)cc1)C(=O)N[C@@H](CC(C)C)C(=O)N[C@@H](CC(N)=O)C(=O)N[C@@H](CO)C(=O)N[C@H](C(=O)N[C@@H](CC(C)C)C(=O)N[C@H](C(=O)NCC(=O)NCC(=O)N[C@@H](CSCNC(C)=O)C(N)=O)[C@@H](C)O)C(C)C) [Ac--(SEQ ID NO: 67)--NH2] | 0.30 µg | 8.72
